Reference: patent publication US20260034094A1, “COMPOSITIONS AND METHODS FOR INDUCING FERROPTOSIS” (Kojin Therapeutics, Inc., priority 2022, published 2026)

Legend:
[1] = target: human recombinant GCL (Homo sapiens (Human), UniProt P48506); assay: GCL enzyme profiling assay (ADP-Glo luminescence); format: biochemical; conditions: human recombinant GCL, ADP-Glo; read-out: GCL IC50
In short: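 ADP-Glo luminescence readout; 5 nM enzyme preincubated 1 h at 22 °C with 0.6 mM ATP, then started with 1 mM glutamate and 1.2 mM α-aminobutyrate, stopped after 2 h. Buffer: HEPES pH 7.5, MgCl2, DTT, BSA, 0.2% F-127, 1% DMSO. IC50 from four-parameter logistic fit.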

[2] = system: RKN cells; assay: RKN cell profiling assay (cell viability, CellTiter-Glo); format: cell-based; conditions: cell viability, read-out: Cell Killing EC50
In short: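 Cells seeded at 1,000/well in F-12 with 10% FBS, left to adhere 24 h, then compound-treated for 96 h at 0.5% final DMSO. Viability by CellTiter-Glo luminescence; EC50 from four-parameter logistic fit. Ferroptosis rescue runs included 1.5 μM ferrostatin-1 added at seeding.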

Sequence of human recombinant GCL (P48506 whole entry): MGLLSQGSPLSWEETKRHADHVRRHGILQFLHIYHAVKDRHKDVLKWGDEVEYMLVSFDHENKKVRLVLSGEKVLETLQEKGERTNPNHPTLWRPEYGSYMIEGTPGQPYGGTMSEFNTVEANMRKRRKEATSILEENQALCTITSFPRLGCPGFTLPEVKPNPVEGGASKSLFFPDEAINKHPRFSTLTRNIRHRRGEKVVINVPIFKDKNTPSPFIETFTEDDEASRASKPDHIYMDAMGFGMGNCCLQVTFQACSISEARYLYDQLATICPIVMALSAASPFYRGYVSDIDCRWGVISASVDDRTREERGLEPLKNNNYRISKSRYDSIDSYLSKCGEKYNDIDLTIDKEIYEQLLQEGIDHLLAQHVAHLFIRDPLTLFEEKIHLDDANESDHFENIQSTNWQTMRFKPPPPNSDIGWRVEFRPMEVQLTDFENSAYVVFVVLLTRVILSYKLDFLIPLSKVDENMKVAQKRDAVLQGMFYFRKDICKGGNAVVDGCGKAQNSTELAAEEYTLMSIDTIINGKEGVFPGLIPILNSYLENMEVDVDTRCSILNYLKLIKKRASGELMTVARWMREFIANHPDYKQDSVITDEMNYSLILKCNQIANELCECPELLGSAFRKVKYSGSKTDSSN

| SMILES | IC50 [1] [µM] | EC50 [2] [µM] |
| --- | --- | --- |
| N=S(=O)(CC[C@H](N)C(=O)O)CCC1(O)[C@H]2C[C@@H]3C[C@@H](C[C@H]1C3)C2 (stereo partly shown) [Compound 302] | 20 to 2000 | ≥ 1000 |
| N=S(=O)(CC[C@H](N)C(=O)O)CCC1(O)CC(F)(F)C1 (stereo partly shown) [Compound 303] | 20 to 2000 | < 1000 |
| COC(=O)C(CCS(=N)(=O)CC[C@H](N)C(=O)O)C(F)(F)F (stereo partly shown) [Compound 305] | ≤ 20 | ≥ 1000 |
| N=S(=O)(CCC(C(=O)O)C(F)(F)F)CC[C@H](N)C(=O)O (stereo partly shown) [Compound 306] | ≤ 20 | < 1000 |
| CNC(=O)C(CCS(=N)(=O)CC[C@H](N)C(=O)O)C(F)(F)F (stereo partly shown) [Compound 307] | 20 to 2000 | < 1000 |
| N=S(=O)(CCC(C(N)=O)C(F)(F)F)CC[C@H](N)C(=O)O (stereo partly shown) [Compound 308] | 20 to 2000 | < 1000 |
| N=S(=O)(CCC(c1ccccc1Cl)C(F)(F)F)CC[C@H](N)C(=O)O (stereo partly shown) [Compound 309] | ≤ 20 | < 1000 |
| N=S(=O)(CCC(c1ccc2ccccc2c1)C(F)(F)F)CC[C@H](N)C(=O)O (stereo partly shown) [Compound 310] | ≤ 20 | < 1000 |
| CC1(CCCS(=N)(=O)CC[C@H](N)C(=O)O)COC1 (stereo partly shown) [Compound 312] | 20 to 2000 | < 1000 |
| COCC(CCS(=N)(=O)CC[C@H](N)C(=O)O)C(F)(F)F (stereo partly shown) [Compound 319] | 20 to 2000 | < 1000 |
| COCC(C)(C)CCS(=N)(=O)CC[C@H](N)C(=O)O (stereo partly shown) [Compound 321] | 20 to 2000 | < 1000 |
| N=S(=O)(CC[C@H](N)C(=O)O)CCC(O)(c1ccc(OC(F)(F)F)cc1)C(F)(F)F (stereo partly drawn) [Compound 330, (2S)-2-amino-4-(4,4,4-trifluoro-3-hydroxy-3-(4-(trifluoromethoxy)phenyl)butylsulfonimidoyl)butanoic acid] | ≤ 20 | ≥ 1000 |
| N=S(=O)(CC[C@H](N)C(=O)O)CCC(O)(c1cc2ccccc2cn1)C(F)(F)F (stereo partly drawn) [Compound 331, (2S)-2-amino-4-(4,4,4-trifluoro-3-hydroxy-3-(isoquinolin-3-yl)butylsulfonimidoyl)butanoic acid] | ≤ 20 | < 1000 |
| N[C@@H](CCS(=O)(=O)CCC(O)(c1cc2ccccc2cn1)C(F)(F)F)C(=O)O (stereo partly drawn) [Compound 332, (2S)-2-amino-4-((4,4,4-trifluoro-3-hydroxy-3-(isoquinolin-3-yl)butyl)sulfonyl)butanoic acid] | 20 to 2000 | ≥ 1000 |
| N=S(=O)(CC[C@H](N)C(=O)O)CCC(O)(C(=O)O)C(F)(F)F (stereo partly shown) [Compound 333] | 20 to 2000 | ≥ 1000 |
| N=S(=O)(CC[C@H](N)C(=O)O)CCC(O)(c1ccc(Oc2ccccc2)cc1)C(F)(F)F (stereo partly shown) [Compound 334] | ≤ 20 | < 1000 |
| N=S(=O)(CCCC(O)(c1ccc(-c2ccccc2)cc1)C(F)(F)F)CC[C@H](N)C(=O)O (stereo partly shown) [Compound 335] | 20 to 2000 | ≥ 1000 |
| N=S(=O)(CC[C@H](N)C(=O)O)CCC(O)(c1ccc(C(F)(F)F)cc1)C(F)(F)F (stereo partly shown) [Compound 338] | ≤ 20 | ≥ 1000 |
| N=S(=O)(CC[C@H](N)C(=O)O)CCC(O)(c1nc2ccccc2[nH]1)C(F)(F)F (stereo partly shown) [Compound 343] | 20 to 2000 | < 1000 |

| SMILES | IC50 [1] [µM] | EC50 [2] [µM] |
| --- | --- | --- |
| N=S(=O)(CC[C@H](N)C(=O)O)CCC(O)(c1nccs1)C(F)(F)F (stereo partly shown) [Compound 344] | ≤ 20 | < 1000 |
| N=[S@@](=O)(CC[C@H](N)C(=O)O)CC[C@@](O)(c1ccccc1)C(F)(F)F [Compound 347, (S)-2-amino-4-((R,3R)-4,4,4-trifluoro-3-hydroxy-3-phenylbutylsulfonimidoyl)butanoic acid] | ≤ 20 | < 1000 |
| N=[S@@](=O)(CC[C@H](N)C(=O)O)CC[C@](O)(c1ccccc1)C(F)(F)F [Compound 348, (S)-2-amino-4-((R,3S)-4,4,4-trifluoro-3-hydroxy-3-phenylbutylsulfonimidoyl)butanoic acid] | ≤ 20 | < 1000 |
| N=S(=O)(CC[C@H](N)C(=O)O)CCC(O)(C1CC1)C(F)(F)F (stereo partly drawn) [Compound 349, (2S)-2-amino-4-(3-cyclopropyl-4,4,4-trifluoro-3-hydroxybutylsulfonimidoyl)butanoic acid] | 20 to 2000 | < 1000 |
| N=S(=O)(CC[C@H](N)C(=O)O)CCC(O)(c1ccccn1)C(F)(F)F (stereo partly drawn) [Compound 350, (2S)-2-amino-4-(4,4,4-trifluoro-3-hydroxy-3-(pyridin-2-yl)butylsulfonimidoyl)butanoic acid] | ≤ 20 | < 1000 |
| N[C@@H](CCS(=O)(=O)CCC(O)(c1ccccn1)C(F)(F)F)C(=O)O (stereo partly drawn) [Compound 351, (2S)-2-amino-4-((4,4,4-trifluoro-3-hydroxy-3-(pyridin-2-yl)butyl)sulfonyl)butanoic acid] | ≤ 20 | ≥ 1000 |
| CCC(O)(CCS(=N)(=O)CC[C@H](N)C(=O)O)C(F)(F)F (stereo partly shown) [Compound 352] | 20 to 2000 | < 1000 |
| CC(C)C(O)(CCS(=N)(=O)CC[C@H](N)C(=O)O)C(F)(F)F (stereo partly shown) [Compound 353] | ≤ 20 | ≥ 1000 |
| N=S(=O)(CC[C@H](N)C(=O)O)CCC(O)(Cc1ccccc1)C(F)(F)F (stereo partly shown) [Compound 354] | 20 to 2000 | ≥ 1000 |
| N=S(=O)(CC[C@H](N)C(=O)O)CCC(O)(C1CCCCC1)C(F)(F)F (stereo partly shown) [Compound 355] | 20 to 2000 | ≥ 1000 |
| N=S(=O)(CC[C@H](N)C(=O)O)CCC(O)(C1CCCC1)C(F)(F)F (stereo partly shown) [Compound 356] | 20 to 2000 | ≥ 1000 |
| N=S(=O)(CC[C@H](N)C(=O)O)CCC(O)(C1CCC1)C(F)(F)F (stereo partly shown) [Compound 357] | ≤ 20 | ≥ 1000 |
| N=S(=O)(CC[C@H](N)C(=O)O)CCC(O)(c1ncc(-c2ccccc2)[nH]1)C(F)(F)F (stereo partly shown) [Compound 358] | ≤ 20 | < 1000 |
| N=S(=O)(CC[C@H](N)C(=O)O)CCC(O)(C(F)(F)F)C12CC(C1)C2 (stereo partly shown) [Compound 359] | 20 to 2000 | ≥ 1000 |
| N=S(=O)(CC[C@H](N)C(=O)O)CCC(O)(c1cc2cc[nH]c2cn1)C(F)(F)F (stereo partly shown) [Compound 360] | ≤ 20 | < 1000 |
| N=S(=O)(CC[C@H](N)C(=O)O)CCC(O)(c1cccnc1)C(F)(F)F (stereo partly shown) [Compound 361] | 20 to 2000 | ≥ 1000 |
| N=S(=O)(CC[C@H](N)C(=O)O)CCC(O)(c1ccncc1)C(F)(F)F (stereo partly shown) [Compound 362] | 20 to 2000 | ≥ 1000 |
| N=S(=O)(CC[C@H](N)C(=O)O)CCC(O)(c1ncccn1)C(F)(F)F (stereo partly shown) [Compound 363] | 20 to 2000 | < 1000 |
| N=S(=O)(CC[C@H](N)C(=O)O)CCC(O)(c1ccnc(C(F)(F)F)c1)C(F)(F)F (stereo partly shown) [Compound 364] | 20 to 2000 | ≥ 1000 |

| SMILES | IC50 [1] [µM] | EC50 [2] [µM] |
| --- | --- | --- |
| N=S(=O)(CC[C@H](N)C(=O)O)CCC(O)(c1ccc(C(F)(F)F)nc1)C(F)(F)F (stereo partly shown) [Compound 365] | 20 to 2000 | ≥ 1000 |
| N=S(=O)(CC[C@H](N)C(=O)O)CCC(O)(c1ccon1)C(F)(F)F (stereo partly shown) [Compound 368] | 20 to 2000 | < 1000 |
| N[C@@H](CCS(=O)(=O)CCC(O)(c1ccon1)C(F)(F)F)C(=O)O (stereo partly shown) [Compound 369] | 20 to 2000 | ≥ 1000 |
| N=S(=O)(CC[C@H](N)C(=O)O)CCC(O)(c1ccsn1)C(F)(F)F (stereo partly shown) [Compound 370] | ≤ 20 | < 1000 |
| N[C@@H](CCS(=O)(=O)CCC(O)(c1ccsn1)C(F)(F)F)C(=O)O (stereo partly shown) [Compound 371] | ≤ 20 | < 1000 |
| N=S(=O)(CC[C@H](N)C(=O)O)CCC(O)(c1ccc(Oc2ccccc2)cn1)C(F)(F)F (stereo partly shown) [Compound 372] | ≤ 20 | < 1000 |
| N=S(=O)(CC[C@H](N)C(=O)O)CCC(O)(c1ncc2ccccc2n1)C(F)(F)F (stereo partly shown) [Compound 374] | 20 to 2000 | < 1000 |
| N=S(=O)(CC[C@H](N)C(=O)O)CCC(O)(c1nsc2ccccc12)C(F)(F)F (stereo partly shown) [Compound 375] | ≤ 20 | < 1000 |
| N=S(=O)(CC[C@H](N)C(=O)O)CCC(O)(c1cc(-c2ccccc2)sn1)C(F)(F)F (stereo partly shown) [Compound 376] | ≤ 20 | < 1000 |
| N[C@@H](CCS(=O)(=O)CCC(O)(c1cc(-c2ccccc2)sn1)C(F)(F)F)C(=O)O (stereo partly shown) [Compound 377] | ≤ 20 | ≥ 1000 |
| N=S(=O)(CC[C@H](N)C(=O)O)CCC(O)(c1cc(-c2ccccc2)on1)C(F)(F)F (stereo partly shown) [Compound 378] | ≤ 20 | < 1000 |
| N=S(=O)(CC[C@H](N)C(=O)O)CCC(O)(C1CCN(c2ccc(Cl)cc2Cl)CC1)C(F)(F)F (stereo partly shown) [Compound 379] | ≤ 20 | < 1000 |
| N=S(=O)(CC[C@H](N)C(=O)O)CCC(O)(c1ccc(Oc2ccc(Cl)cc2Cl)cn1)C(F)(F)F (stereo partly shown) [Compound 380] | ≤ 20 | < 1000 |
| N=S(=O)(CCC(C1CCCCC1)C(F)(F)F)CC[C@H](N)C(=O)O (stereo partly drawn) [Compound 381, (2S)-2-amino-4-(3-cyclohexyl-4,4,4-trifluorobutylsulfonimidoyl)butanoic acid] | ≤ 20 | ≥ 1000 |
| N=S(=O)(CCC(C1CCCC1)C(F)(F)F)CC[C@H](N)C(=O)O (stereo partly shown) [Compound 382] | ≤ 20 | ≥ 1000 |
| N=S(=O)(CCC(C1CCC1)C(F)(F)F)CC[C@H](N)C(=O)O (stereo partly shown) [Compound 383] | ≤ 20 | ≥ 1000 |
| N=S(=O)(CCC(C(F)(F)F)C12CC(C1)C2)CC[C@H](N)C(=O)O (stereo partly shown) [Compound 384] | ≤ 20 | ≥ 1000 |
| N=S(=O)(CC[C@H](N)C(=O)O)CCC1(c2cccc(F)c2)CCC1 (stereo partly drawn) [Compound 385, (2S)-2-amino-4-[2-[1-(3-fluorophenyl)cyclobutyl]ethylsulfonimidoyl]butanoic acid] | 20 to 2000 | < 1000 |
